Test results: US7417156B2, “Orally active, antimalarial, anticancer, artemisinin-derived trioxane dimers” (Johns Hopkins University, priority 2002, dated 2008)
Where two headings read alike, the source gives them in different places.

Assays:
[1] = tested on: chloroquine-sensitive P. falciparum (NF54); assay: Antimalarial activity in vitro, [3H]hypoxanthine incorporation; type: cell-based
60 cell line panel = type: cell-based
CCRF-CEM = assay: NCI 60 cell line panel screen (SRB); type: cell-based, human; details: CCRF-CEM (Leukemia)
HL-60(TB) = assay: NCI 60 cell line panel screen (SRB); type: cell-based, human
K-562 = assay: NCI 60 cell line panel screen (SRB); type: cell-based, human
MOLT-4 = tested on: MOLT-4
Summary of the method: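 Sulforhodamine B staining of TCA-fixed cellular protein was the read-out, following 48 h compound exposure at 37 °C. Plates were pre-incubated 24 h before dosing, and five concentrations (routinely 10^−4 to 10^−8 molar) were tested in duplicate with time-zero and untreated controls. Values derive from test/control percentage growth relative to time-zero mass.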

A549/ATCC = assay: NCI 60 cell line panel screen (SRB); type: cell-based, human
HOP-92 = assay: NCI 60 cell line panel screen (SRB); type: cell-based, human
NCI-H460 = assay: NCI 60 cell line panel screen (SRB); type: cell-based, human
HCT-15 = assay: NCI 60 cell line panel screen (SRB); type: cell-based, human
KM12 = assay: NCI 60 cell line panel screen (SRB); type: cell-based, human
UACC-257 = assay: NCI 60 cell line panel screen (SRB); type: cell-based, human
OVCAR-3 = assay: NCI 60 cell line panel screen (SRB); type: cell-based, human
ACHN = assay: NCI 60 cell line panel screen (SRB); type: cell-based, human
PC-3 = assay: NCI 60 cell line panel screen (SRB); type: cell-based, human
MCF7 = assay: NCI 60 cell line panel screen (SRB); type: cell-based, human
HS 578T = assay: NCI 60 cell line panel screen (SRB); type: cell-based, human
[2] = mean value over the 60 cell line panel

## CC1CCC2C(C)C(CC(CO)CC3OC4OC5(C)CCC6C(C)CCC(C3C)C46OO5)OC3OC4(C)CCC1C32OO4 (centres unmarked) [Compound 4, bis-trioxane primary alcohol]
[1]
  IC50: below one nM
  antimalarial potency in vitro relative to artemisinin: 10 times
[1]; Table I, NF54 strain, read-out: IC50
  IC50: 870 pM
60 cell line panel
  Log10GI50 Delta: 1.13
  Log10GI50 Range: 3.20
60 cell line panel; 60 cell line panel
  Log10LC50 Delta: 0.88
  Log10LC50 Range: 1.14
  Log10TGI50 Delta: 2.31
  Log10TGI50 Range: 3.18
60 cell line panel; human cancer cell lines in general
  growth inhibition and cytotoxicity in words: strongly inhibitory but not cytotoxic
60 cell line panel; leukemia cell line RPM 1-8226, melanoma cell line SK-MEL-5, renal cancer cell line ACHN
  growth inhibition in words: selectively and strongly inhibitory
60 cell line panel; mean over panel
  Log10GI50 MG MID: −6.87
60 cell line panel; [2]
  Log10LC50 MG MID: −4.26 log10M
  Log10TGI50 MG MID: −4.87 log10M
CCRF-CEM; LC50: PG=−50
  Log10LC50: >−4.00 log10M
CCRF-CEM; TGI: PG=0
  Log10TGI50: −4.66 log10M
HL-60(TB); HL-60(TB) (Leukemia), LC50: PG=−50
  Log10LC50: −4.13 log10M
HL-60(TB); HL-60(TB) (Leukemia), TGI: PG=0
  Log10TGI50: −4.88 log10M
HL-60(TB); Leukemia, HL-60(TB)
  Log10GI50: −7.78
K-562; K-562 (Leukemia), LC50: PG=−50
  Log10LC50: >−4.00 log10M
K-562; K-562 (Leukemia), TGI: PG=0
  Log10TGI50: >−4.00 log10M
K-562; Leukemia, K-562
  Log10GI50: −7.91
MOLT-4
  concentration for cytotoxicity (percentage growth −50): greater than 10^−4 M
MOLT-4; Leukemia, MOLT-4
  Log10GI50: −7.92
MOLT-4; MOLT-4 (Leukemia), LC50: PG=−50
  Log10LC50: >−4.00 log10M
MOLT-4; MOLT-4 (Leukemia), TGI: PG=0
  Log10TGI50: >−4.00 log10M
A549/ATCC; A549/ATCC (Non-Small Cell Lung Cancer), LC50: PG=−50
  Log10LC50: −4.11 log10M
A549/ATCC; A549/ATCC (Non-Small Cell Lung Cancer), TGI: PG=0
  Log10TGI50: −4.71 log10M
A549/ATCC; Non-Small Cell Lung Cancer, A549/ATCC
  Log10GI50: −7.29
HOP-92; HOP-92 (Non-Small Cell Lung Cancer), LC50: PG=−50
  Log10LC50: −4.22 log10M
HOP-92; HOP-92 (Non-Small Cell Lung Cancer), TGI: PG=0
  Log10TGI50: −4.65 log10M
HOP-92; Non-Small Cell Lung Cancer, HOP-92
  Log10GI50: −6.37
NCI-H460; NCI-H460 (Non-Small Cell Lung Cancer), LC50: PG=−50
  Log10LC50: −4.19 log10M
NCI-H460; NCI-H460 (Non-Small Cell Lung Cancer), TGI: PG=0
  Log10TGI50: −4.71 log10M
NCI-H460; Non-Small Cell Lung Cancer, NCI-H460
  Log10GI50: −7.35
HCT-15; Colon Cancer, HCT-15
  Log10GI50: <−8.00
HCT-15; HCT-15 (Colon Cancer), LC50: PG=−50
  Log10LC50: −4.06 log10M
HCT-15; HCT-15 (Colon Cancer), TGI: PG=0
  Log10TGI50: −4.78 log10M
KM12; Colon Cancer, KM12
  Log10GI50: <−8.00
KM12; KM12 (Colon Cancer), LC50: PG=−50
  Log10LC50: −4.29 log10M
KM12; KM12 (Colon Cancer), TGI: PG=0
  Log10TGI50: −4.79 log10M
UACC-257; Melanoma, UACC-257
  Log10GI50: −7.31
UACC-257; UACC-257 (Melanoma), LC50: PG=−50
  Log10LC50: −4.30 log10M
UACC-257; UACC-257 (Melanoma), TGI: PG=0
  Log10TGI50: −4.71 log10M
OVCAR-3; OVCAR-3 (Ovarian Cancer), LC50: PG=−50
  Log10LC50: −4.42 log10M
OVCAR-3; OVCAR-3 (Ovarian Cancer), TGI: PG=0
  Log10TGI50: −4.92 log10M
OVCAR-3; Ovarian Cancer, OVCAR-3
  Log10GI50: −7.68
ACHN; ACHN (Renal Cancer), LC50: PG=−50
  Log10LC50: −4.30 log10M
ACHN; ACHN (Renal Cancer), TGI: PG=0
  Log10TGI50: −4.76 log10M
ACHN; Renal Cancer, ACHN
  Log10GI50: −7.12
PC-3; PC-3 (Prostate Cancer), LC50: PG=−50
  Log10LC50: −4.34 log10M
PC-3; PC-3 (Prostate Cancer), TGI: PG=0
  Log10TGI50: −4.89 log10M
PC-3; Prostate Cancer, PC-3
  Log10GI50: <−8.00
MCF7; Breast Cancer, MCF7
  Log10GI50: −7.22
MCF7; MCF7 (Breast Cancer), LC50: PG=−50
  Log10LC50: −4.03 log10M
MCF7; MCF7 (Breast Cancer), TGI: PG=0
  Log10TGI50: −4.67 log10M
HS 578T; Breast Cancer, HS 578T
  Log10GI50: −4.82
HS 578T; HS 578T (Breast Cancer), LC50: PG=−50
  Log10LC50: >−4.00 log10M
HS 578T; HS 578T (Breast Cancer), TGI: PG=0
  Log10TGI50: >−4.00 log10M
